The record followed here is PubChem BioAssay (NCI).

Test systems include COLO 205 colon; HL-60(TB) leukemia; NCI-H23 lung; RPMI-8226 leukemia; SK-MEL-28 melanoma; SK-OV-3 ovarian; SN12C renal; U251 CNS.
Holding throughout (assay): NCI anticancer screen, dose series, 48 h

Several values for one entry are separate records, joined by “and”; a condition that tells them apart may be missing. Equal values may be shown once.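 The compound was tested at five concentrations on cells cultured in 96-well plates, with a 48-hour exposure period. At the GI50, growth is halved. The concentration for full growth arrest is given as TGI.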

For `Cc1cc(N(CCC#N)CCC#N)ccc1/C=C/C(=O)Nc1ccccc1Cl`, the TGI in the assay on COLO 205 colon, in the assay on HL-60(TB) leukemia, in the assay on NCI-H23 lung, in the assay with RPMI-8226 leukemia, in the assay with SK-MEL-28 melanoma and in the assay with SK-OV-3 ovarian was greater than 100 µM throughout. Further, the TGI in the assay with SN12C renal and in the assay with U251 CNS was greater than 100 µM throughout.

For the compound `O=C(O)C(CS)N=Cc1nc(-c2ccccc2)oc1O` (stereo unspecified), the TGI in the assay with COLO 205 colon, with HL-60(TB) leukemia, in the assay on NCI-H23 lung, in the assay on RPMI-8226 leukemia, with SK-MEL-28 melanoma and with SK-OV-3 ovarian was greater than 100 µM each time. Further, the TGI in the assay on SN12C renal and in the assay with U251 CNS was greater than 100 µM each time.

With `COc1cc2c3c(c1OC)/C(=N/OS(=O)(=O)c1ccc(C)cc1)CC3N(S(=O)(=O)c1ccc(C)cc1)CC2` (stereo unspecified), the TGI in the assay with COLO 205 colon, in the assay on HL-60(TB) leukemia, in the assay with NCI-H23 lung, in the assay with RPMI-8226 leukemia, with SK-MEL-28 melanoma and with SK-OV-3 ovarian was greater than 100 µM each time. Moreover, the TGI in the assay with SN12C renal and with U251 CNS was greater than 100 µM each time.

As for `C1=CC=C2NCCSCCNC3=CC=CC=CC3=NCCSCCN=C2C=C1`, the TGI in the assay on COLO 205 colon, in the assay on HL-60(TB) leukemia, with NCI-H23 lung, with RPMI-8226 leukemia, in the assay on SK-MEL-28 melanoma and with SK-OV-3 ovarian was greater than 100 µM in each case. Besides, the TGI in the assay on SN12C renal and with U251 CNS was greater than 100 µM throughout.

Regarding `C(/C=C/N1CCCC1)=C\c1nc(N2CCCC2)c2ccccc2n1`, the TGI in the assay with COLO 205 colon was 28.5 µM; with HL-60(TB) leukemia it was 61.3 µM; with NCI-H23 lung, 32.9 µM; in the assay with RPMI-8226 leukemia, 42.3 µM; in the assay on SK-MEL-28 melanoma, 38.7 µM; in the assay with SK-OV-3 ovarian, 36.3 µM. This compound also showed a TGI in the assay with SN12C renal of 29 µM.

Regarding `O=C(NOC(=O)c1ccc([N+](=O)[O-])cc1)c1ccc(Cl)cc1`, the TGI with COLO 205 colon was greater than 100 µM; in the assay on HL-60(TB) leukemia, 34.3 µM; in the assay with NCI-H23 lung, greater than 100 µM; with RPMI-8226 leukemia, greater than 100 µM; with SK-MEL-28 melanoma, greater than 100 µM; with SK-OV-3 ovarian, greater than 100 µM. For the same compound, the TGI with SN12C renal and with U251 CNS was greater than 100 µM throughout.

On to `CC12O[Te]34OC1(C)C(C)(O3)C2(C)O4`, for which the TGI in the assay with COLO 205 colon was determined as 31.1 µM; in the assay on NCI-H23 lung, 34.8 µM; in the assay with SK-MEL-28 melanoma it was 23.3 µM; in the assay on SK-OV-3 ovarian it was 36.3 µM; in the assay with SN12C renal it was 23 µM; in the assay with U251 CNS, 15.2 µM.

`CC(C)(C)c1cc(C(=O)O)c(C(c2ccccc2)c2ccccc2C(=O)O)c(C(=O)O)c1` (stereo unspecified): the TGI in the assay with COLO 205 colon is greater than 100 µM; in the assay with HL-60(TB) leukemia it was greater than 100 µM; with NCI-H23 lung it was greater than 100 µM; in the assay with SK-MEL-28 melanoma, greater than 100 µM; in the assay on SK-OV-3 ovarian, 36.9 µM; in the assay on SN12C renal, 49.1 µM. The TGI in the assay on U251 CNS stood at 25.4 µM.

Regarding `COc1cc2c(c(OC)c1OC)-c1ccc(SC)c(=O)cc1[C@@H](NC(=O)c1ccc(F)cc1)CC2`, the GI50 in the assay with COLO 205 colon, in the assay with NCI-H23 lung, with SK-OV-3 ovarian, with SN12C renal and in the assay on U251 CNS was less than 0.01 µM each time. Moreover, the TGI with COLO 205 colon is 0.0388 µM and < 0.01 µM; in the assay on HL-60(TB) leukemia, 12.7 µM; in the assay on NCI-H23 lung, less than 0.01 µM; in the assay with SK-MEL-28 melanoma it was greater than 100 µM; with SK-OV-3 ovarian, 0.072 µM and < 0.01 µM; in the assay on SN12C renal, 46.8 µM. The TGI with U251 CNS was 0.0113 µM.

In the case of `CCCCOP1(=O)C=CC(Cl)=C(C)C1` (stereo unspecified), the TGI in the assay with COLO 205 colon turned out to be 97.7 µM; in the assay with HL-60(TB) leukemia, 39.6 µM; with RPMI-8226 leukemia, 85.6 µM; in the assay on SK-MEL-28 melanoma, 31.7 µM; in the assay on SN12C renal, 49.8 µM.

With `CN1C(=O)CC2(C)c3cc(C=O)ccc3N(C)C12` (stereo unspecified), the TGI with COLO 205 colon, in the assay on NCI-H23 lung, in the assay with SK-MEL-28 melanoma, in the assay on SK-OV-3 ovarian, in the assay on SN12C renal and in the assay on U251 CNS was greater than 100 µM throughout.

`CC(=O)[O-].O=[N+]([O-])c1ccc([O-])c(C=NCCN=Cc2cc([N+](=O)[O-])ccc2[O-])c1.[Mn+3]`: the GI50 with HL-60(TB) leukemia, with NCI-H23 lung, in the assay with SK-MEL-28 melanoma, in the assay with SK-OV-3 ovarian, in the assay with SN12C renal and in the assay with U251 CNS was greater than 100 µM each time. Moreover, the TGI with HL-60(TB) leukemia, with NCI-H23 lung, in the assay on SK-MEL-28 melanoma, in the assay with SK-OV-3 ovarian, in the assay on SN12C renal and in the assay with U251 CNS was greater than 100 µM each time.

For the compound `CC1(C)Oc2ccccc2N2O[C@@H]3C(=O)N(c4ccccc4)C(=O)[C@@H]3C21c1ccccc1` (stereo partly specified), the TGI in the assay with COLO 205 colon was greater than 100 µM; in the assay on NCI-H23 lung, greater than 100 µM; with RPMI-8226 leukemia it was greater than 100 µM; in the assay on SK-MEL-28 melanoma it was 85 µM; with SK-OV-3 ovarian it was 41 µM; in the assay on U251 CNS it was 69.1 µM.
